Data reported in ChEMBL document CHEMBL5338816, “Discovery of Dimethyl Shikonin Oxime 5a, a Potent, Selective Bombesin Receptor Subtype-3 Agonist for the Treatment of Type 2 Diabetes Mellitus” (J Med Chem, 2023).
Activity calls are given as the source filed them. No cut-off for these calls is given here.

Experiments:
[1] = target: T1, Bombesin receptor subtype-3 (Homo sapiens, UniProt P32247); assay: Agonist activity at human BB3 stably overexpressed in human NCI-H1299 cells assessed as increase in IP-1 accumulation incubated for 60 mins by HTRF assay; type: functional, cell-based
T1 sequence (P32247 whole entry): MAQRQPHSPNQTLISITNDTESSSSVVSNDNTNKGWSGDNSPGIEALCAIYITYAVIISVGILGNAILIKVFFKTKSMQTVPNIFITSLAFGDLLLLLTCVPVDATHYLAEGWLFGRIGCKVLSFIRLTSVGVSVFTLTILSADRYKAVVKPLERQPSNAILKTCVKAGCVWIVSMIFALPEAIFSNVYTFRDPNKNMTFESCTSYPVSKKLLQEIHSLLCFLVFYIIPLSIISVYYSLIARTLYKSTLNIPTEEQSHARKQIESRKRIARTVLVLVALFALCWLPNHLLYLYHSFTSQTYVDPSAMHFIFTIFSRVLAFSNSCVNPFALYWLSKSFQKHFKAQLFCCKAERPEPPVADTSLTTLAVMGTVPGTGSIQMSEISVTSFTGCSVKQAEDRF

Neuromedin-B receptor [2] = target: T2, Neuromedin-B receptor (Homo sapiens, UniProt P28336); assay: Agonist activity at human BB1 in human HEK293T cells assessed as increase in intracellular calcium response and measured for 3 mins by FLIPR calcium 6 assay; type: functional, cell-based
Target sequence in this assay (P28336 whole entry): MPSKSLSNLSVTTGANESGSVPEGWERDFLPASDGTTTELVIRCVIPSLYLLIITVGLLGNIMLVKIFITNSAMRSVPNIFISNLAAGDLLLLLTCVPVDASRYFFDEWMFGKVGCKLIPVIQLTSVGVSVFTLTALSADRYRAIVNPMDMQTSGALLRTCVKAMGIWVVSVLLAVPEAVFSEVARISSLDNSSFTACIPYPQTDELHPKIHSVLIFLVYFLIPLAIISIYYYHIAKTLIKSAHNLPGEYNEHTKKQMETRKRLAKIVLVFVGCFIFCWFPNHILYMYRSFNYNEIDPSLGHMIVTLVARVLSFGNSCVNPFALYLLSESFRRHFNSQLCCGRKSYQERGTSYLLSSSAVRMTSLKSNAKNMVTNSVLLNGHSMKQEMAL

[3] = Agonist activity at human BB3 in human HEK293T cells assessed as increase in intracellular calcium response and measured for 3 mins by FLIPR calcium 6 assay; type: cell-based; settings: HEK-293T, 0.05 h
[4] = target: T1, Bombesin receptor subtype-3; assay: Agonist activity at human BB3 transiently expressed in human HEK293T cells assessed as increase in IP-1 accumulation incubated for 60 mins by HTRF assay
[5] = Drug concentration in […] mouse cerebrospinal fluid at 50 mg/kg,po and measured upto 480 mins by LC-MS/MS analysis; type: ADME, organism-based; settings: read-out: Ct
Mus musculus [6] = assay: Antidiabetic activity in fourteen hour fasted type 2 diabetic db/db mouse assessed as increase in PPRE expression in white adipose tissue at 10 mg/kg, po for 4 weeks by Western blot analysis; type: functional, organism-based
[7] = target: T3, Bombesin receptor subtype-3 (Mus musculus, UniProt O54798); assay: Agonist activity at endogenous mouse BB3 in mouse B16 cells assessed as increase in IP-1 accumulation incubated for 60 mins by HTRF assay; type: functional, cell-based
T3 sequence (O54798 whole entry): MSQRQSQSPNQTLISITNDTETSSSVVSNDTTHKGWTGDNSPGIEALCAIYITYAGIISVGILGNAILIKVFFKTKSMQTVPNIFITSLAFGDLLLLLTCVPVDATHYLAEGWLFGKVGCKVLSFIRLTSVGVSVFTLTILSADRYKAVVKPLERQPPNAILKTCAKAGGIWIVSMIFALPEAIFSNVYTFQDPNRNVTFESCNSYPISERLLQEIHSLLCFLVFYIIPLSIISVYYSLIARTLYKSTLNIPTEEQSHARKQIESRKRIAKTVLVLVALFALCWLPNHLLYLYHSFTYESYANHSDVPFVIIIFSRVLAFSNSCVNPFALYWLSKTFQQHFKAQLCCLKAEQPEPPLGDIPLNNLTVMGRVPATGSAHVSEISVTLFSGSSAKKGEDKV

Mus musculus [8] = assay: Antidiabetic activity in five hrs fasted BB3 knockout C57BL/6 mouse assessed as reduction in blood glucose level at 30 mg/kg,po pretreated with compound for 30 mins and followed by […] and measured upto 120 mins by OGTT; type: functional, organism-based; settings: time 150.0 min
Mus musculus [9] = assay: Antidiabetic activity in five hrs fasted wild type C57BL/6 mouse assessed as reduction in blood glucose level at 3 to 30 mg/kg,po pretreated with compound for 30 mins and followed by […] and measured upto 120 mins by OGTT; type: functional, organism-based; settings: dose upper 30.0 mg/kg, time 150.0 min
Mus musculus [10] = assay: Antidiabetic activity in fourteen hour fasted type 2 diabetic db/db mouse assessed as decrease in fasting blood glucose level at 10 mg/kg,po for 4 weeks by Glucose analyzer; type: functional, organism-based
Mus musculus [11] = assay: Antidiabetic activity in fourteen hour fasted type 2 diabetic db/db mouse assessed as decrease in ALT level at 10 mg/kg,po for 4 weeks by BS-360S analyzer; type: functional, organism-based
[12] = Dissociation constant, pKa of the compound; type: physicochemical
[13] = target: T3, Bombesin receptor subtype-3; assay: Agonist activity at mouse BB3 stably overexpressed in human HEK cells assessed as increase in IP-1 accumulation incubated for 60 mins by HTRF assay; type: functional, cell-based
Mus musculus [14] = assay: Antidiabetic activity in fourteen hour fasted type 2 diabetic db/db mouse assessed as decrease in gamma-GT level at 10 mg/kg,po for 4 weeks by BS-360S analyzer; type: functional, organism-based
[15] = target: T3, Bombesin receptor subtype-3; assay: Agonist activity at mouse BB3 stably overexpressed in human HEK cells assessed as increase in intracellular calcium response and measured for 3 mins by FLIPR calcium 6 assay; type: functional, cell-based
Neuromedin-B receptor [16] = target: T2, Neuromedin-B receptor; assay: Agonist activity at human BB1 in human HEK293T cells assessed as increase in intracellular calcium response at 10 uM and measured for 3 mins by FLIPR calcium 6 assay; type: functional, cell-based
Target sequence in this assay (P28336 whole entry, looked up): as the sequence (P28336 whole entry) above

Mus musculus [17] = assay: Antidiabetic activity in fourteen hour fasted type 2 diabetic db/db mouse assessed as decrease in glycosylated serum protein at 10 mg/kg,po for 4 weeks; type: functional, organism-based
[18] = target: T4, Bombesin receptor subtype-3 (Rattus norvegicus, UniProt Q8K418); assay: Agonist activity at rat BB3 transiently expressed in human HEK293T cells assessed as increase in IP-1 accumulation incubated for 60 mins by HTRF assay; type: functional, cell-based
T4 sequence (Q8K418 whole entry): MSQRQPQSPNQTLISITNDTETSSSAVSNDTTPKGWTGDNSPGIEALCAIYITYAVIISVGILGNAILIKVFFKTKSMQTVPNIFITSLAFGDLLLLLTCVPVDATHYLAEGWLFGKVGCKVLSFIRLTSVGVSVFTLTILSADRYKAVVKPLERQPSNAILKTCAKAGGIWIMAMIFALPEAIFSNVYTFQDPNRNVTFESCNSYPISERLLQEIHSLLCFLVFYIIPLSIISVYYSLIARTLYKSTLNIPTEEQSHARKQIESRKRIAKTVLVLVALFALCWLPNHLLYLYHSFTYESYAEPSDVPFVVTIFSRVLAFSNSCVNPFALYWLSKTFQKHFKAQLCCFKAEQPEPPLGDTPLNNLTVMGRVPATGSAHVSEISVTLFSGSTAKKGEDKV

Mus musculus [19] = assay: Antidiabetic activity in fourteen hour fasted type 2 diabetic db/db mouse assessed as reduction of blood glucose excursion at 10 mg/kg,po for 2 weeks followed by […] and measured upto 120 mins by OGTT; type: functional, organism-based
Mus musculus [20] = assay: Antidiabetic activity in fourteen hour fasted type 2 diabetic db/db mouse assessed as decrease in HOMA-IR level at 10 mg/kg,po for 4 weeks; type: functional, organism-based
HEK293T = assay: Agonist activity at human BB3 in human HEK293T cells assessed as increase in intracellular calcium response at 10 uM and measured for 3 mins by FLIPR calcium 6 assay; type: cell-based
[21] = target: T1, Bombesin receptor subtype-3; assay: Agonist activity at human BB3 stably overexpressed in human NCI-H1299 cells assessed as increase in intracellular calcium response and measured for 3 mins by FLIPR calcium 6 assay; type: functional, cell-based

Compound: COc1cc(C(CC=C(C)C)OC(=O)CC(C)C)c(OC)c2c1/C(=N/O)C=C/C2=N\O (centres undefined)
- EC50 [1]: 822 nM

Compound: C=CC(C)(C)C(OC(=O)c1ccccc1)c1cc(OC)c2c(c1OC)/C(=N/O)C=C/C2=N\O (centres undefined)
- EC50 [1]: 4.79 nM

Compound: C=CC(C)(C)C(OC(C)=O)c1cc(OC)c2c(c1OC)/C(=N/O)C=C/C2=N\O (centres undefined)
- EC50 [1]: > 1000 nM

Compound: COc1cc(C(CC=C(C)C)OCCC(C)C)c(OC)c2c1/C(=N/O)C=C/C2=N\O (centres undefined)
- EC50 [1]: 520 nM

Compound: C=CC(C)(C)C(OC(=O)c1ccccn1)c1cc(OC)c2c(c1OC)/C(=N/O)C=C/C2=N\O (centres undefined)
- EC50 [1]: 14.7 nM

Compound: CCCC[C@H](NC(=O)[C@H](Cc1ccccc1)NC(=O)[C@H](Cc1c[nH]cn1)NC(=O)CNC(=O)[C@@H](NC(=O)[C@H](C)NC(=O)[C@H](Cc1c[nH]c2ccccc12)NC(=O)[C@H](CCC(N)=O)NC(=O)[C@H](N)Cc1ccccc1)C(C)C)C(N)=O
- EC50 (Neuromedin-B receptor [2]): 0.155 nM
- EC50 [3]: 0.405 nM

Compound: C=CC(C)(C)C(OC(=O)c1ccco1)c1cc(OC)c2c(c1OC)/C(=N/O)C=C/C2=N\O (centres undefined)
- EC50 [4]: 149 nM
- concentration at 8 h [5]: < 0.05 ng/mL
- Activity (Mus musculus [6]): Active
- EC50 [7]: 0.44 nM
- Activity (Mus musculus [8]): inactive
- Activity (Mus musculus [9]): Dose-Dependent Effect
- Activity (Mus musculus [10]): Active
- Activity (Mus musculus [11]): Active
- pKa [12]: > 10.2
- EC50 [13]: 54.7 nM
- Activity (Mus musculus [14]): Active
- EC50 [15]: 67 nM
- Activity (Neuromedin-B receptor [16]): inactive
- Activity (Mus musculus [17]): Active
- EC50 [18]: 6.11 nM
- Activity (Mus musculus [19]): Active
- Activity (Mus musculus [20]): Active
- Activity (HEK293T): inactive
- EC50 [1]: 3.78 nM
- EC50 [21]: 10.9 nM

Compound: COc1cc(C(O)CC=C(C)C)c(OC)c2c1/C(=N/O)C=C/C2=N\O (centres undefined)
- EC50 [13]: 624 nM
- EC50 [15]: 780 nM
- EC50 [1]: 3400 nM
- EC50 [21]: 2380 nM

Compound: C=CC(C)(C)C(OCCCCO)c1cc(OC)c2c(c1OC)/C(=N/O)C=C/C2=N\O (centres undefined)
- EC50 [1]: 226 nM

Compound: COc1cc(C(CC=C(C)C)OCCC(C)C)c(OC)c2c1/C(=N/OC(=O)c1ccccc1)C=C/C2=N\OC(=O)c1ccccc1 (centres undefined)
- EC50 [1]: > 10000 nM

Compound: C=CC(C)(C)C(OC(=O)CC(C)C)c1cc(OC)c2c(c1OC)/C(=N/O)C=C/C2=N\O (centres undefined)
- EC50 [1]: 52.5 nM

Compound: C=CC(C)(C)C(OC(=O)c1ccncc1)c1cc(OC)c2c(c1OC)/C(=N/O)C=C/C2=N\O (centres undefined)
- EC50 [1]: 277 nM

Compound: C=CC(C)(C)C(OC(=O)c1cncc(F)c1)c1cc(OC)c2c(c1OC)/C(=N/O)C=C/C2=N\O (centres undefined)
- EC50 [1]: 60 nM

Compound: C=CC(C)(C)C(O)c1cc(OC)c2c(c1OC)/C(=N/O)C=C/C2=N\O (centres undefined)
- EC50 [1]: > 10000 nM

Compound: C=CC(C)(C)C(OC(=O)c1cccnc1)c1cc(OC)c2c(c1OC)/C(=N/O)C=C/C2=N\O (centres undefined)
- EC50 [1]: 15.7 nM

Compound: C=CC(C)(C)C(OC(=O)c1ccc(C)cc1)c1cc(OC)c2c(c1OC)/C(=N/O)C=C/C2=N\O (centres undefined)
- EC50 [1]: 81.7 nM

Compound: O[C@@](Cc1nc(CC2(C(F)(F)F)CC2)c[nH]1)(c1ccc(-n2cccn2)cc1)C(F)(F)F
- EC50 [7]: 13.5 nM
- EC50 [13]: 0.421 nM
- EC50 [15]: 2.99 nM
- EC50 [1]: 0.211 nM
- EC50 [21]: 0.293 nM

Compound: C=CC(C)(C)C(OC(=O)c1ccc(C=O)cc1)c1cc(OC)c2c(c1OC)/C(=N/O)C=C/C2=N\O (centres undefined)
- EC50 [1]: 311 nM

Compound: C=CC(C)(C)C(OCCCO)c1cc(OC)c2c(c1OC)/C(=N/O)C=C/C2=N\O (centres undefined)
- EC50 [1]: > 10000 nM

Compound: C=CC(C)(C)C(OC(=O)C1CCCO1)c1cc(OC)c2c(c1OC)/C(=N/O)C=C/C2=N\O (centres undefined)
- EC50 [1]: 135 nM

Compound: C=CC(C)(C)C(OC(=O)c1cccnc1Br)c1cc(OC)c2c(c1OC)/C(=N/O)C=C/C2=N\O (centres undefined)
- EC50 [1]: 101 nM

Compound: C=CC(C)(C)C(OCCCCCO)c1cc(OC)c2c(c1OC)/C(=N/O)C=C/C2=N\O (centres undefined)
- EC50 [1]: 776 nM
